Results published in US5830770A, “Hapten-protein conjugates for use in detection of organophosphorus compounds” (priority 1993, dated 1998).
Read-outs that look alike come from different tables or passages of the source.

Key:
generic antibodies = assay: Relative inhibition of binding of generic antibodies to hapten conjugate; parameters: species or system rabbit; details: inhibition at 100 μg/ml minus inhibition at 0.1 μg/ml organophosphate
Method: (§1) Assay was carried out in the same manner as Example 5 with the following modifications. Antisera was diluted 1:2000 with 1% BSA in PBST and 100 μl was incubated for 2 hours at 25° C. with 100 μl of each concentration of the unconjugated OP--in this case the generic part--in a microtitration plate. Concentrations of OP ranged from 200 to 0.001 μg ml^-1.

antisera from rabbit 20 = assay type: binding; parameters: key to cross reactivity by inhibition ELISA, Rabbit 20: +++: strong; ++: medium; +: weak reaction; poor: slight; -: none; details: for cross reactivity by inhibition ELISA, Rabbit 20: antisera 1:2000, 2 hours at 25° C.; for concentration for 50% inhibition: Rabbit 20
Method: (§2) An ELISA was used to screen the antisera for polyclonal antibodies to the generic hapten/conjugate of the invention using the following protocol. Microtitre plates (Costar) were coated with the appropriate hapten conjugate with ovalbumin by diluting that in 0.05M sodium hydrogen carbonate/sodium carbonate buffer (pH 9.6) to give an optimum protein concentration of 1 μg/ml previously determined by chequerboard titration; protein found by Bradford assay. 100 μl was added to each microtitre plate well and the plates placed in a moist chamber overnight, washed 3 times with 0.15 phosphate buffered saline pH7.2 with 0.05% Tween 20[RTM]: PBST), and blotted dry. Blocking was carried out by adding 250 μl per well of 5% skimmed milk for 1 hour at 25° C.
(§3) After two further washings the coated microplates were stored at -20° C. until required, whereon they were washed once with PBST. Antisera were diluted (1/1000 for general screening or doubling dilutions up to 1/512,000 for titration assays) in PSBT, applied to microtitre wells in triplicate in 50 μl amounts and incubated in a moist chamber at 25° C. for 1 hour (appropriate positive and negative controls were included--PBST, negative rabbit serum and positive serum when it had been produced). Wells were then washed 3 times in PBST and 200 μl of a 1:1500 dilution of swine anti-rabbit immunoglobulin conjugated to horseradish peroxidase (DAKO) was added to each well. Plates were incubated once more for 1 hour at 25° C. then washed 3 times with PBST.
(§4) Tetramethylbenzidine (TMB) enzyme substrate solution was prepared by adding 400 μl of 6.0 g/l TMB in DMSO to 24.5 ml of 0.1M sodium acetate buffer pH5.5 with 100 μl of 1% H2 O2 and 100 μl added to the wells. The microplates were incubated for 15 minutes in the dark at 25° C. before the reaction was stopped by adding 50 μl of 2.5M H2 SO4 and the absorbance read at 450 nm against air. Results: are given below with those of Example 6.
as §1
(§5) Cross reactivity of antisera from rabbits 19, 20 and 21 by inhibition ELISA with the various organophosphorus pesticides is shown in Table 5 in which concentration (μg ml^-1) for 50% inhibition to occur is given together with the diluent in which this is achieved--PBST or % methanol in PBST for figures.

antisera from rabbit 19 = assay type: binding; parameters: key: +++: strong; ++: medium; +: weak reaction; poor: slight; -: none; details: antisera 1:2000, 2 hours at 25° C.
Method: as §2, §3, §4, §1, §5

antisera from rabbit 21 = assay type: binding; parameters: key: +++: strong; ++: medium; +: weak reaction; poor: slight; -: none; details: antisera 1:2000, 2 hours at 25° C.
Method: as §2, §3, §4, §1, §5

| Compound | Relative inhibition of binding of generic antibodies to hapten conjugate as % of hapten + spacer inhibition (generic antibodies) [%] | cross reactivity by inhibition ELISA, Rabbit 20 (antisera from rabbit 20) | cross reactivity by inhibition ELISA, Rabbit 19 (antisera from rabbit 19) | cross reactivity by inhibition ELISA, Rabbit 21 (antisera from rabbit 21) | concentration for 50% inhibition (antisera from rabbit 20; diluent PBST) [µg/mL] | concentration for 50% inhibition (antisera from rabbit 20; diluent 10% methanol in PBST) [µg/mL] |
| --- | --- | --- | --- | --- | --- | --- |
| CCOP(=O)(OCC)OC(=CCl)c1ccc(Cl)cc1Cl [Chlorfenvinphos, chlorfenvinphos] | 33.4 | + | - | + |  |  |
| COP(=S)(OC)Oc1nc(Cl)c(Cl)cc1Cl [Chlorpyrifos-methyl] | 29.2 | poor | poor | poor |  |  |
| COP(=O)(OC)OC=C(Cl)Cl [Dichlorvos, dichlorvos] | 60.0 | ++ | ++ | + | 91.1 |  |
| CNC(=O)CSP(=S)(OC)OC [Dimethoate, dimethoate] | 41.4 | ++ | - | + |  | > 150 |
| CCOc1cc(OP(=S)(OC)OC)nc(CC)n1 [Etrimfos, etrimfos] | 30.8 | + | - | poor |  |  |
| COP(=S)(OC)Oc1ccc([N+](=O)[O-])c(C)c1 [Fenitrothion, fenitrothion] | 90.1 | +++ | + | + |  | 4.8 |
| O=C(O)CNCP(=O)(O)O [Glyphospate] |  | - | - | - |  |  |
